Results reported in US20140051877A1, “EICOSAPENTAENOIC ACID (EPA) AS POLYUNSATURATED FREE FATTY ACID IN ITS DIRECTLY COMPRESSIBLE POWDER FORM AND PROCESS OF ISOLATION THEREOF” (priority 2011, published 2014).

Key:
[1] = Stability of EPA powder at room temperature; type: physicochemical; conditions: powder form, no antioxidants added
[2] = Physical characterisation of isolated EPA: solubility; type: physicochemical; conditions: solvent chloroform; isolated EPA free fatty acid powder
Description: Take 1 litre of fish oil. Maintain temperature to 40-45° C. To it add 1-2% methanolic or ethanolic or propanolic or butanolic sodium or potassium hydroxide 1 litre and stir for ½ an hour. keep aside, it separates into 2 layers, discard an upper layer which contains lower fatty acids. It further separates in to two layers, discard the upper layer. Then in lower layer add 750 ml of acetone or ethyl/ methyl ketone and stir for ½ an hour and keep aside for 20 mins. It precipitates and form two phase (solid and liquid) filter it and discard the solid layer. In the lower liquid layer, after ½ an hour, settle solid compound. On filtration, the solid compound separates. Wash the solid compound 2-3 times with 400 ml of acetone and Evaporate and recover the solvent with temperature not exceeding 40 degree C. This leads to drying of the precipitated EPA at room temperature to form the crystalline mass. The same is passed through the sieve to obtain a dry, directly compressible, free flowing powder of free fatty acid EPA thereof.
Cool fish oil to 12 degree C. to solidify all fatty acids in waxy form which separates from the fish oil. […] It is washed 2-3 times with equal quantity of acetone and Evaporate and recover the solvent with temperature not exceeding 40 degree C. […]

For CC/C=C\C/C=C\C/C=C\C/C=C\C/C=C\CCCC(=O)O [EPA, Eicosapentaenoic acid], the Stability [1] was “stable at room temperature” and the Solubility [2] was “freely soluble in chloroform”.
